29 molecules from patent US20260125359A1, “HETEROARYL COMPOUNDS AS MULTI-TARGET PROTEIN KINASE INHIBITORS” (FUJIAN HAIXI PHARMACEUTICALS CO., LTD., priority 2023, published 2026) can be followed below.

The test system of this assay is M-NFS-60 cells. Nature of the assay: M-NFS-60 cell in vitro assay (CCK, 48 h, M-CSF factor medium). In kind it is cell-based. Conditions: M-NFS-60 cells; read-out: M-NFS-60cellassay IC50. The method, boiled down:
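Mouse M-NFS-60 cells (2000/well) in RPMI-1640 with 10% serum and M-CSF (25 ng/ml) were pre-incubated 4 h, then exposed to DMSO-diluted compound gradients for 48 h at 5% CO2. Viability read by CCK, 2 h, OD 450 nm; IC50 from curve fitting.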
The term IC50 denotes the midpoint of a concentration-inhibition curve. Consider `Cn1cc(-c2cnc(N)c(O[C@H]3CCc4c(C(=O)Nc5cccc(C6CC6)c5)cccc43)c2)cn1` [Compound 4, (S)-1-((2-amino-5-(1-methyl-1H-pyrazol-4-yl)pyridin-3-yl)oxy)-N-(3-cyclopropylphenyl)-2,3-dihydro-1H-indene-4-carboxamide], for which the IC50 is less than 50 nM.

Take `Cc1cccc(NC(=O)c2cccc3c2CC[C@@H]3Nc2cncc(-c3cnn(C)c3)c2)c1` [Compound 13, (S)-1-((5-(1-methyl-1H-pyrazol-4-yl)pyridin-3-yl)amino)-N-(m-tolyl)-2,3-dihydro-1H-indene-4-carboxamide]: the IC50 is less than 50 nM.

`Cn1cc(-c2cncc(N[C@H]3CCc4c(C(=O)Nc5cncc(Cl)c5)cccc43)c2)cn1` [Compound 14aa, (S)—N-(5-chloropyridin-3-yl)-1-((5-(1-methyl-1H-pyrazol-4-yl)pyridin-3-yl)amino)-2,3-dihydro-1H-indene-4-carboxamide]: the IC50 was less than 50 nM.

Consider `Cn1cc(-c2cncc(N[C@H]3CCc4c(C(=O)Nc5ccc(C(F)(F)F)nc5)cccc43)c2)cn1` [Compound 14ah], for which the half-maximal inhibitory concentration (IC50) was less than 50 nM.

As for `CN1CCc2ccc(NC(=O)c3cccc4c3CC[C@@H]4Nc3cncc(-c4cnn(C)c4)c3)cc2C1` [Compound 14ap], the IC50 is less than 50 nM.

`Cc1cncc(NC(=O)c2cccc3c2CC[C@@H]3Nc2cncc(-c3cnn(C)c3)c2)c1` [Compound 14as]: the IC50 was less than 50 nM.

Take `CN1CCc2nc(NC(=O)c3cccc4c3CC[C@@H]4Nc3cncc(-c4cnn(C)c4)c3)sc2C1` [Compound 14ba]: the IC50 was less than 50 nM.

Turning to `Cc1cccc(C(=O)Nc2cccc3c2CC[C@@H]3Oc2cncc(-c3cnn(C)c3)c2)c1` [Compound 15, (S)-3-methyl-N-(1-((5-(1-methyl-1H-pyrazol-4-yl)pyridin-3-yl)oxy)-2,3-dihydro-1H-inden-4-yl)benzamide], the 50% inhibitory concentration (IC50) was in the range of 200 to 500 nM.

Take `Cn1cc(-c2cncc(O[C@H]3CCc4c(C(=O)Nc5cncc(Cl)c5)cccc43)c2)cn1` [Compound 19a, (S)—N-(5-chloropyridin-3-yl)-1-((5-(1-methyl-1H-pyrazol-4-yl)pyridin-3-yl)oxy)-2,3-dihydro-1H-indene-4-carboxamide]: the half-inhibitory concentration (IC50) was less than 50 nM.

Take `Cn1cc(-c2cncc(O[C@H]3CCc4c(C(=O)Nc5cccc(C6CC6)c5)cccc43)c2)cn1` [Compound 19b]: the IC50 was less than 50 nM.

As for `CN1CCc2nc(NC(=O)c3cccc4c3CC[C@@H]4Oc3cncc(-c4cnn(C)c4)c3)sc2C1` [Compound 19f], the IC50 fell in the range of 50 to 200 nM.

Regarding `CN(C)Cc1cncc(NC(=O)c2cccc3c2CC[C@@H]3Oc2cncc(-c3cnn(C)c3)c2)c1` [Compound 19h], the IC50 was greater than 500 nM.

For `Cc1cncc(NC(=O)c2cccc3c2CC[C@@H]3Oc2cncc(-c3cnn(C)c3)c2)c1` [Compound 19j], the IC50 was less than 50 nM.

Consider `Cc1cc(NC(=O)c2cccc3c2CC[C@@H]3Oc2cncc(-c3cnn(C)c3)c2)cc(C)n1` [Compound 19k, (S)—N-(2,6-dimethylpyridin-4-yl)-1-((5-(1-methyl-1H-pyrazol-4-yl)pyridin-3-yl)oxy)-2,3-dihydro-1H-indene-4-carboxamide], for which the IC50 was less than 50 nM.

As for `CN(c1cncc(-c2cnn(C)c2)c1)[C@H]1CCc2c(C(=O)Nc3cncc(Cl)c3)cccc21` [Compound 21, (S)—N-(5-chloropyridin-3-yl)-1-(methyl (5-(1-methyl-1H-pyrazol-4-yl)pyridin-3-yl)amino)-2,3-dihydro-1H-indene-4-carboxamide], the IC50 is 50 to 200 nM.

Take `CN(c1cncc(-c2cnn(C)c2)c1)[C@H]1CCc2c(C(=O)Nc3cccc(C4CC4)c3)cccc21` [Compound 22a, (S)—N-(3-cyclopropylphenyl)-1-(methyl (5-(1-methyl-1H-pyrazol-4-yl)pyridin-3-yl)amino)-2,3-dihydro-1H-indene-4-carboxamide]: the IC50 was less than 50 nM.

`Cn1cc(-c2cncc(N[C@H]3CCc4c(C(=O)Nc5nn(C)c6ccccc56)cccc43)n2)cn1` [Compound 27g, (S)—N-(1-methyl-1H-indazol-3-yl)-1-((6-(1-methyl-1H-pyrazol-4-yl)pyrazin-2-yl)amino)-2,3-dihydro-1H-indene-4-carboxamide]: the IC50 was less than 50 nM.

Take `Cn1cc(-c2cncc(N[C@H]3CCc4c(Nc5cc(C(C)(C)C)on5)cccc43)c2)cn1` [Compound 41, (S)—N^4-(5-(tert-butyl)isoxazol-3-yl)-N^1-(5-(1-methyl-1H-pyrazol-4-yl)pyridin-3-yl)-2,3-dihydro-1H-indene-1,4-diamine]: the IC50 was less than 50 nM.

`Cn1cc(-c2cncc(N[C@H]3CCc4c(Nc5noc(C(C)(C)C)n5)cccc43)c2)cn1` [Compound 42o]: the IC50 was 50 to 200 nM.

Consider `Cn1ncc2ncc(N[C@H]3CCc4c(C(=O)Nc5cccc(C6CC6)c5)cccc43)cc21` [Compound 73, (S)—N-(3-cyclopropylphenyl)-1-((1-methyl-1H-pyrazolo[4,3-b]pyridin-6-yl)amino)-2,3-dihydro-1H-indene-4-carboxamide], for which the IC50 is less than 50 nM.

For the molecule `Cn1cc2ncc(N[C@H]3CCc4c(C(=O)Nc5nc(C6CC6)cs5)cccc43)cc2n1` [Compound 74h, (S)—N-(4-cyclopropylthiazol-2-yl)-1-((2-methyl-2H-pyrazolo[4,3-b]pyridin-6-yl)amino)-2,3-dihydro-1H-indene-4-carboxamide], the IC50 was less than 50 nM.

Turning to `Cn1ncc2ncc(O[C@H]3CCc4c(C(=O)Nc5cncc(Cl)c5)cccc43)cc21` [Compound 76ac, (S)—N-(5-chloropyridin-3-yl)-1-((1-methyl-1H-pyrazolo[4,3-b]pyridin-6-yl)oxy)-2,3-dihydro-1H-indene-4-carboxamide], the IC50 was less than 50 nM.

Take `Cn1cc2ncc(O[C@H]3CCc4c(C(=O)Nc5cncc(Cl)c5)cccc43)cc2n1` [Compound 76ai]: the half-maximal inhibitory concentration (IC50) is less than 50 nM.

Regarding `Cn1cc2ncc(O[C@H]3CCc4c(C(=O)Nc5nn(C)c6ccccc56)cccc43)cc2n1` [Compound 76al], the concentration for half-maximal inhibition (IC50) is less than 50 nM.

For the molecule `Cn1cc2ncc(O[C@H]3CCc4c(C(=O)Nc5nn(C)c6cccc(F)c56)cccc43)cc2n1` [Compound 76aw], the 50% inhibitory concentration (IC50) was less than 50 nM.

On to `Cc1cccc(NC(=O)c2cccc3c2CC[C@@H]3Oc2cnc3cn(C)nc3c2)n1` [Compound 76bd], for which the IC50 was less than 50 nM.

Take `CN(c1cnc2cn(C)nc2c1)[C@H]1CCc2c(C(=O)Nc3cncc(Cl)c3)cccc21` [Compound 80k]: the IC50 was less than 50 nM.

Consider `CN(c1cnc2cn(C)nc2c1)[C@H]1CCc2c(C(=O)Nc3nn(C)c4ccccc34)cccc21` [Compound 80l], for which the IC50 is less than 50 nM.

In the case of `Cn1ncc2ncc(N[C@H]3CCc4c(Nc5cc(C(C)(C)C)on5)cccc43)nc21` [Compound 86, (S)—N^4-(5-(tert-butyl)isoxazol-3-yl)-N1-(1-methyl-1H-pyrazolo[3,4-b]pyrazin-6-yl)-2,3-dihydro-1H-indene-1,4-diamine], the IC50 was less than 50 nM.
